Laboratory results published in the NIST ThermoML archive (doi:10.1021/acs.jced.7b00584).
± gives the expanded uncertainty stated by the source.

Columns and labels:
[1] = Liquid, Ebulliometric method (Recirculating still)
[2] = Boiling temperature at pressure P; details: 101.3 kPa; Liquid; Ebulliometric method (Recirculating still)

Structure (SMILES): OCCCCO [1,4-butanediol]
- vapor or sublimation pressure ([1]; 479.1 K): 50 ± 1 kPa
- vapor or sublimation pressure ([1]; 489.25 K): 70 ± 1 kPa
- Boiling temperature at pressure P [2]: 228.00 ± 0.11 °C

Structure (SMILES): C1CCOC1 [tetrahydrofuran]
- vapor or sublimation pressure ([1]; 318.85 K): 50 ± 1 kPa
- vapor or sublimation pressure ([1]; 328.15 K): 70 ± 1 kPa
- Boiling temperature at pressure P [2]: 65.97 ± 0.11 °C

Structure (SMILES): O=C1CCCO1 [γ-butyrolactone]
- vapor or sublimation pressure ([1]; 450.25 K): 50 ± 1 kPa
- vapor or sublimation pressure ([1]; 462.65 K): 70 ± 1 kPa
- Boiling temperature at pressure P [2]: 204.00 ± 0.11 °C
